This assay has as its system Swiss mice, Sarcoma 180 sc, mean tumor weight T/C. The assay can be described thus: NCI In Vivo Anticancer Drug Screen. Data for tumor model Sarcoma 180 (subcutaneous) in Swiss mice. Particulars: endpoint: mean tumor weight, higher = larger tumour. The gist of the method: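 Readout is the ratio of treated-group measurement to vehicle-control measurement (T/C), based on survival or tumor size in mice carrying transplanted tumors.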

Where [1] appears, read: dose: 200.0 mg/kg/injection, schedule: Q01DX007 (ip), vehicle: saline.

T/C data for 19 molecules are collected here from PubChem BioAssay AID342 (DTP/NCI, 2004).

The term T/C denotes the result in the treated group divided by that in the control group, in per cent.

Several values for one entry are separate records, joined by “and”; a condition that tells them apart may be missing. Identical values can stand only once.

As to `Nc1cc(SCc2ccccc2)nc(N)n1`, the T/C is 52 % of control (dose: 18.75 mg/kg/injection, schedule: Q#A X014 (ip), vehicle: methylcellulose (MC)); 70 % of control (dose: 37.5 mg/kg/injection, schedule: Q#A X014 (ip), vehicle: methylcellulose (MC)); 29 % of control (dose: 66.5 mg/kg/injection, schedule: Q#A X014 (ip), vehicle: methylcellulose (MC)); 68 % of control (dose: 75.0 mg/kg/injection, schedule: Q#A X014 (ip), vehicle: methylcellulose (MC)); 40 % of control (dose: 100.0 mg/kg/injection, schedule: Q#A X014 (ip), vehicle: methylcellulose (MC)); 35 % of control (dose: 225.0 mg/kg/injection, schedule: Q#A X014 (ip), vehicle: methylcellulose (MC)).
For the molecule `CNCc1ccccc1`, under “dose: 146.5 mg/kg/injection, schedule: Q01DX007 (ip), vehicle: carboxymethylcellulose (CMC)”, the T/C is 91 % of control.
For `COC(=O)[C@@H]1c2cc3c(c(O)c2[C@@H](OC2OC(C)C(OC)C(C)(OC)C2OC)C[C@]1(C)O)C(=O)c1c(O)cc2c(c1C3=O)O[C@H]1O[C@]2(C)[C@H](O)[C@@H](N(C)C)[C@@H]1O` (stereo partly specified), the T/C is 77 % of control (dose: 0.2 mg/kg/injection, schedule: Q01DX007 (ip), vehicle: saline); 81 % of control (dose: 0.3 mg/kg/injection, schedule: Q01DX007 (ip), vehicle: saline); 60 % of control (dose: 0.44 mg/kg/injection, schedule: Q01DX007 (ip), vehicle: saline); 57 % of control (dose: 0.67 mg/kg/injection, schedule: Q01DX007 (ip), vehicle: saline); 50 % of control (dose: 1.0 mg/kg/injection, schedule: Q01DX007 (ip), vehicle: saline).
For `COc1ccc(CSc2ncnc3nc[nH]c23)cc1`, the T/C reads like this: (dose: 55.5 mg/kg/injection, schedule: Q#A X014 (ip), vehicle: methylcellulose (MC)) 48 % of control; (dose: 83.0 mg/kg/injection, schedule: Q#A X014 (ip), vehicle: methylcellulose (MC)) 29 % of control; (dose: 125.0 mg/kg/injection, schedule: Q#A X014 (ip), vehicle: methylcellulose (MC)) 14 % of control; (dose: 187.5 mg/kg/injection, schedule: Q#A X014 (ip), vehicle: methylcellulose (MC)) 10 % of control.
Turning to `COC1C(OC(N)=O)C(O)C(Oc2ccc3c(O)c(NC(=O)c4ccc(O)c(CC=C(C)C)c4)c(=O)oc3c2C)OC1(C)C` (stereo unspecified), the T/C under setting [1] was 102 % of control.
As for `CO[C@H]1CC[C@@]2(C)[C@@H](CC[C@H]3[C@@H]4C[C@H](O)C[C@@]4(C)CC[C@@H]32)C1`, the T/C reads like this: (dose: 0.01 mg/kg/injection, schedule: Q#A X014 (sc), vehicle: olive oil, sesame oil, peanut oil) 121 % of control; (dose: 0.05 mg/kg/injection, schedule: Q#A X014 (sc), vehicle: olive oil, sesame oil, peanut oil) 72 % of control; (dose: 0.25 mg/kg/injection, schedule: Q#A X014 (sc), vehicle: olive oil, sesame oil, peanut oil) 112 % of control; (dose: 50.0 mg/kg/injection, schedule: Q#A X014 (ip), vehicle: distilled water + alcohol) 95 % of control.
As for `CCCCNP(=O)(N1CC1)N1CC1`, the T/C (dose: 0.15 mg/kg/injection, schedule: Q#A X014 (ip), vehicle: saline) is 18 % of control and the T/C (dose: 0.25 mg/kg/injection, schedule: Q#A X014 (ip), vehicle: saline) was 7 % of control.
Consider `CC1CN1P(=O)(N1CCCC1)N1CC1C` (stereo unspecified), for which the T/C runs as follows: (dose: 15.5 mg/kg/injection, schedule: Q#A X014 (ip), vehicle: saline) 27 % of control and 48 % of control; (dose: 23.5 mg/kg/injection, schedule: Q#A X014 (ip), vehicle: saline) 4 % of control; (dose: 31.0 mg/kg/injection, schedule: Q01DX007 (ip), vehicle: saline) 77 % of control; (dose: 47.0 mg/kg/injection, schedule: Q01DX007 (ip), vehicle: saline) 100 % of control; (dose: 70.0 mg/kg/injection, schedule: Q01DX007 (ip), vehicle: saline) 50 % of control.
Regarding `Nc1cccc2c(=O)[nH][nH]c(=O)c12`, the T/C is, setting by setting: (dose: 62.5 mg/kg/injection, schedule: Q01DX007 (ip), vehicle: water) 119 % of control; (dose: 125.0 mg/kg/injection, schedule: Q01DX007 (ip), vehicle: water) 118 % of control; (dose: 250.0 mg/kg/injection, schedule: Q01DX007 (ip), vehicle: water) 61 % of control; (dose: 375.0 mg/kg/injection, schedule: Q01DX007 (ip), vehicle: water) 85 % of control.
Turning to `[N-]=[N+]=C1N=CN=C1c1ncn[nH]1`, the T/C by setting is: (dose: 25.0 mg/kg/injection, schedule: Q01DX007 (ip), vehicle: carboxymethylcellulose (CMC)) 107 % of control; (dose: 50.0 mg/kg/injection, schedule: Q01DX007 (ip), vehicle: carboxymethylcellulose (CMC)) 69 % of control.
As for `NNC(=O)NC(=O)NN`, the T/C is, setting by setting: (dose: 9.5 mg/kg/injection, schedule: Q01DX007 (ip), vehicle: carboxymethylcellulose (CMC)) 91 % of control; (dose: 19.0 mg/kg/injection, schedule: Q01DX007 (ip), vehicle: carboxymethylcellulose (CMC)) 124 % of control; (dose: 38.0 mg/kg/injection, schedule: Q01DX007 (ip), vehicle: carboxymethylcellulose (CMC)) 111 % of control; (dose: 76.0 mg/kg/injection, schedule: Q01DX007 (ip), vehicle: carboxymethylcellulose (CMC)) 69 % of control.
In the case of `O=c1[nH]cc(C(F)(F)F)c(=O)[nH]1`, the T/C is, setting by setting: under setting [1], 63 % of control; (dose: 300.0 mg/kg/injection, schedule: Q01DX007 (ip), vehicle: saline) 73 % of control.
On to `CC(=O)NNC(=O)c1ccccn1`, for which the T/C is, setting by setting: (dose: 37.5 mg/kg/injection, schedule: Q01DX007 (ip), vehicle: water) 112 % of control; (dose: 75.0 mg/kg/injection, schedule: Q01DX007 (ip), vehicle: water) 104 % of control; (dose: 100.0 mg/kg/injection, schedule: Q01DX007 (ip), vehicle: water) 89 % of control; (dose: 200.0 mg/kg/injection, schedule: Q01DX007 (ip), vehicle: water) 98 % of control.
Turning to `COc1ccc2c(c1)CC[C@@H]1[C@@H]2CC[C@@]2(C)[C@H]1CC[C@]2(C)O`, the T/C is 80 % of control (dose: 0.5 mg/kg/injection, schedule: Q#A X014 (sc), vehicle: steriod suspending solution); 113 % of control (dose: 5.0 mg/kg/injection, schedule: Q#A X014 (sc), vehicle: steriod suspending solution); 68 % of control (dose: 50.0 mg/kg/injection, schedule: Q#A X014 (sc), vehicle: steriod suspending solution).
Turning to `NC(=O)SCC(=O)Nc1ccc2ncccc2c1`, the T/C (dose: 42.0 mg/kg/injection, schedule: Q#A X014 (ip), vehicle: methylcellulose (MC)) was 84 % of control; the T/C (dose: 63.5 mg/kg/injection, schedule: Q#A X014 (ip), vehicle: methylcellulose (MC)) was 76 % of control; the T/C (dose: 93.5 mg/kg/injection, schedule: Q#A X014 (ip), vehicle: methylcellulose (MC)) was 58 % of control; the T/C (dose: 140.0 mg/kg/injection, schedule: Q#A X014 (ip), vehicle: methylcellulose (MC)) was 56 % of control; the T/C (dose: 250.0 mg/kg/injection, schedule: Q01DX007 (ip), vehicle: other) is 87 % of control; the T/C (dose: 500.0 mg/kg/injection, schedule: Q01DX007 (ip), vehicle: other) is 46 % of control.
Take `O=C(Nc1ccc(Sc2ccc(N=Nc3c(O)c(S(=O)(=O)O)cc4cc(S(=O)(=O)O)ccc34)cc2)cc1)c1ccc(N=Nc2ccc3c(S(=O)(=O)O)cccc3c2O)cc1`: the T/C (dose: 55.0 mg/kg/injection, schedule: Q01DX007 (ip), vehicle: carboxymethylcellulose (CMC)) was 68 % of control and 78 % of control; the T/C (dose: 84.0 mg/kg/injection, schedule: Q01DX007 (ip), vehicle: carboxymethylcellulose (CMC)) was 72 % of control and 75 % of control; the T/C (dose: 125.0 mg/kg/injection, schedule: Q01DX007 (ip), vehicle: carboxymethylcellulose (CMC)) was 28 % of control; the T/C (dose: 188.0 mg/kg/injection, schedule: Q01DX007 (ip), vehicle: carboxymethylcellulose (CMC)) is 25 % of control.
In the case of `CN1CC(=O)N=C1N`, the T/C (dose: 500.0 mg/kg/injection, schedule: Q#A X014 (ip), vehicle: water) is 74 % of control and the T/C (dose: 1500.0 mg/kg/injection, schedule: Q#A X014 (ip), vehicle: water) was 73 % of control.
Take `C[C@@H](N)[C@@H](O)c1ccccc1`: the T/C is, setting by setting: (dose: 3.13 mg/kg/injection, schedule: Q01DX007 (ip), vehicle: saline) 89 % of control; (dose: 6.25 mg/kg/injection, schedule: Q01DX007 (ip), vehicle: saline) 91 % of control; (dose: 12.5 mg/kg/injection, schedule: Q01DX007 (ip), vehicle: saline) 51 % of control; (dose: 25.0 mg/kg/injection, schedule: Q01DX007 (ip), vehicle: saline) 52 % of control.
`CN(Cc1cnc2nc(NCNC(=O)C3=C(O)[C@@]4(O)C(=O)C5=C(O)c6c(O)cccc6[C@@](C)(O)[C@H]5C[C@H]4[C@H](N(C)C)C3=O)nc(N)c2n1)c1ccc(C(=O)NC(CCC(=O)O)C(=O)O)cc1` (stereo partly specified): the T/C was 76 % of control (dose: 1.5 mg/kg/injection, schedule: Q01DX007 (ip), vehicle: saline); 52 % of control (dose: 3.0 mg/kg/injection, schedule: Q01DX007 (ip), vehicle: saline); 16 % of control (dose: 6.0 mg/kg/injection, schedule: Q01DX007 (ip), vehicle: saline).
